Measured values: patent publication US11730746B2, “17beta-heterocyclyl-digitalis like compounds for the treatment of heart failure” (priority 2018, dated 2023)

Columns and labels:
HMG-CoA Reductase = target: T1, HMG-CoA Reductase (Homo sapiens, UniProt P04035); assay: Eurofins panel 124010; assay type: biochemical
T1 construct: Eurofins 124010

Peptidase, Renin = target: T2, Peptidase, Renin (Homo sapiens, UniProt P00797); assay: Eurofins panel 164610; assay type: biochemical
T2 construct: Eurofins 164610

[1] = target: T3, Transporter, Norepinephrine (NET) (Homo sapiens, UniProt P23975); assay: Receptor binding 204410
T3 construct: Eurofins (contract assay) 204410
Procedure: (§1) Radioligand binding to a panel of receptors was carried out by Eurofins on crude membrane preparations according to published procedures and by using appropriate reference standard (Eurofins, CVie 101 compound code PT #1207859, study #AB76416, quote #68407-1, for Cvie Therapeutics Limited, Taiwan (R.OC.) on Mar. 5, 2017). CVie 101 was tested at the concentration of 10 μM. No significant interaction was documented, except for Sodium Channel, site 2 from rat (cat #279510), where a significant response (≥50%) was noted (Table 7).

[2] = target: T4, CYP19 (CYP450, 19; aromatase) (Homo sapiens, UniProt P11511); assay: Eurofins panel 118040; assay type: biochemical; conditions: crude membrane preparations
T4 construct: Eurofins 118040
Procedure: as §1

Phorbol Ester = assay: Receptor binding 264500; design: species or system mouse; conditions: 10 μM
Procedure: as §1

Muscarinic M5 = target: T5, Muscarinic M5 (Homo sapiens, UniProt P08912); assay: Receptor binding 253010
T5 construct: Eurofins (contract assay) 253010
Procedure: as §1

Histamine H1 = target: T6, Histamine H1 (Homo sapiens, UniProt P35367); assay: Receptor binding 239610
T6 construct: Eurofins (contract assay) 239610
Procedure: as §1

Opiate μ(OP3, MOP) = target: T7, Opiate μ(OP3, MOP) (Homo sapiens, UniProt P35372); assay: Receptor binding 260410
T7 construct: Eurofins (contract assay) 260410
Procedure: as §1

Adrenergic α2A = target: T8, Adrenergic α2A (Homo sapiens, UniProt P08913); assay: Receptor binding 203630
T8 construct: Eurofins 203630; host or cells: crude membrane preparation
Procedure: as §1

Adrenergic β1 = target: T9, Adrenergic β1 (Homo sapiens, UniProt P08588); assay: Receptor binding 204010
T9 construct: Eurofins 204010; host or cells: crude membrane preparation
Procedure: as §1

[3] = tested on: guinea pig isolated cardiomyocytes; assay: Action potential measurements in isolated ventricular cardiomyocytes; assay type: cell-based; conditions: 100 nM
Excerpt: The compounds were characterized for their effect on (i) SR Ca^2+ uptake function, (ii) action potential (AP) in myocytes freshly dissociated from guinea-pig ventricles by retrograde coronary perfusion with enzymatic solution (Rocchetti M et al. J Pharmacol Exper Therap 2005; 313(1):207-215).
The action potential (AP) contour provides a first-line estimate of the integrated function of membrane ion channels and its changes may disclose ancillary actions, potentially resulting in untoward effects of the compound. To increase sensitivity of the AP contour as a reporter, effects on the rate-dependency of AP parameters were also tested, thus providing a multiparametric (more stringent) approach.
APs were recorded in normal Tyrode's solution at 36.5° C. The following parameters were measured at 4 stimulation rates (0.5-1-2-4 Hz): diastolic membrane potential (Edlast), maximum depolarization velocity (dV/dtmax), action potential duration (APD at 90%, 50% and 20% of repolarization), time constant (τ) of APD adaptation after a step change in stimulation rate. Short term APD variability (STV) during steady-state pacing, an index of repolarization stability, was measured as the sum of absolute ortogonal deviations from the identity line in the APDnfAPDn+1 plot (Poincare plot) (Altomare C et al, Circulation A&E 2015; 8:1265-1275).

Progesterone PR-B = target: T10, Progesterone PR-B (Homo sapiens, UniProt P06401); assay: Receptor binding 299005
T10 construct: Eurofins (contract assay) 299005
Procedure: as §1

Androgen (Testosterone) = assay: Receptor binding 206000; design: species or system human; conditions: 10 μM
Procedure: as §1

Adrenergic α1B = target: T11, Adrenergic α1B (Rattus norvegicus, UniProt P15823); assay: Receptor binding 203200
T11 construct: Eurofins 203200; host or cells: crude membrane preparation
Procedure: as §1

Angiotensin AT1 = target: T12, Angiotensin AT1 (Homo sapiens, UniProt P30556); assay: Receptor binding 210030
T12 construct: Eurofins 210030; host or cells: crude membrane preparation
Procedure: as §1

[4] = tested on: Calcium Channel L-type, Dihydropyridine; assay: Receptor binding 214600; design: species or system rat; conditions: 10 μM
Procedure: as §1

[5] = tested on: Glutamate, NMDA, Phencyclidine; assay: Receptor binding 233000; design: species or system rat; conditions: 10 μM
Procedure: as §1

Angiotensin AT2 = target: T13, Angiotensin AT2 (Homo sapiens, UniProt P50052); assay: Receptor binding 210120
T13 construct: Eurofins 210120; host or cells: crude membrane preparation
Procedure: as §1

Adrenergic α1A = target: T14, Adrenergic α1A (Rattus norvegicus, UniProt P43140); assay: Receptor binding 203100
T14 construct: Eurofins 203100; host or cells: crude membrane preparation
Procedure: as §1

[6] = Acute toxicity (LD50) in mouse; conditions: Albino Swiss CD-1, in vivo, single administration
Procedure: 194. Acute toxicity has been determined in the mouse (Albino Swiss CD-1, body weight 30 g). Mice were orally treated, or intravenously injected, with single administration of increasing doses of the test substance to identify the dose causing 50% mortality. Mortality occurred within 30 min after the administration and survival after 24 h. The acute toxicity (LD50) was then assessed.
The acute toxicity of the tested compound CVie 101 has been determined in the mouse (Albino Swiss CD-1, body weight 30 g). CVie 101 has been orally administered or intravenously injected at increasing doses to identify the dose causing 50% mortality. Mortality occurred within 30 min after the administration and survival after 24 h.

Potassium Channel (KATP) = target: T15, Potassium Channel (KATP) (Cricetus cricetus, UniProt Q09427); assay: Receptor binding 265600; design: species or system hamster
T15 construct: Eurofins (contract assay) 265600
Procedure: as §1

[7] = tested on: ATPase, Ca++, skeletal muscle, pig; assay: Eurofins panel 107480; assay type: biochemical; conditions: 10 μM
[8] = rats, study i.v. 1 mg/kg and os 10 mg/kg, mean

T6 sequence (P35367 whole entry): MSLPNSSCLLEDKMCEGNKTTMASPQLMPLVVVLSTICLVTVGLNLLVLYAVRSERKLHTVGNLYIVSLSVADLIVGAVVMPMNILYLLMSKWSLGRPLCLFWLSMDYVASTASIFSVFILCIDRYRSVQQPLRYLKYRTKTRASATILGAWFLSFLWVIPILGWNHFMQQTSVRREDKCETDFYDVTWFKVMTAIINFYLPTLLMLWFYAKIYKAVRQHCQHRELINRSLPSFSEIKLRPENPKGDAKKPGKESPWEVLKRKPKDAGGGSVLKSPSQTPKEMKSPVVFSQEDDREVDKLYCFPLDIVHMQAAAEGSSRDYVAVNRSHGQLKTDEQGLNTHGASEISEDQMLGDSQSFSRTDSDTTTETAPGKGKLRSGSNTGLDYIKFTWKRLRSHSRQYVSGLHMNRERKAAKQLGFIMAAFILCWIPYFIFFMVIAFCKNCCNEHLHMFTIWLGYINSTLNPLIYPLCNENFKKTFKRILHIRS
T13 sequence (P50052 whole entry): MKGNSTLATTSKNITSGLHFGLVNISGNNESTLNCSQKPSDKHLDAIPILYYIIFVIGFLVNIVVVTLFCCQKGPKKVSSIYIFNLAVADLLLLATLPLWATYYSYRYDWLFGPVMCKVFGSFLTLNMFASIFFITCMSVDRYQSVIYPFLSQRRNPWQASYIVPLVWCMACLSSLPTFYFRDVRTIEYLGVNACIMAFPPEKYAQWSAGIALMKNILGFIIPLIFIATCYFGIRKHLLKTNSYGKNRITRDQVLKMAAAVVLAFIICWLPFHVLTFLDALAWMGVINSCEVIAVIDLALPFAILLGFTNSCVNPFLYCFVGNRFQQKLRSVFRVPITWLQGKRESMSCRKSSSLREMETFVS
T11 sequence (P15823 whole entry): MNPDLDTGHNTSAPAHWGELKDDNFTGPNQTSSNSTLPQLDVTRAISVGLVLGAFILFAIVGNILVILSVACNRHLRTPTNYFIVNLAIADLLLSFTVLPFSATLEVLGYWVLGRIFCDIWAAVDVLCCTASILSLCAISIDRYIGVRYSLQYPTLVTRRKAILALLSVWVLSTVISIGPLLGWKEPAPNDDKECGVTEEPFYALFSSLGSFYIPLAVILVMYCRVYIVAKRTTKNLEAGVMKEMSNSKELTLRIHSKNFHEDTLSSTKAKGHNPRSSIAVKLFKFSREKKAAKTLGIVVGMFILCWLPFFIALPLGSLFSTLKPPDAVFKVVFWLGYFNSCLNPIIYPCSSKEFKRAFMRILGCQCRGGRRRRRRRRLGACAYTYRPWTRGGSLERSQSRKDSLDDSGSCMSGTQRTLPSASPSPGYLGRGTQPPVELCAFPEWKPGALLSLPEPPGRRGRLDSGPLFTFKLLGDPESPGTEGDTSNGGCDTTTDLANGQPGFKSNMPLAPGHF
T3 sequence (P23975 whole entry): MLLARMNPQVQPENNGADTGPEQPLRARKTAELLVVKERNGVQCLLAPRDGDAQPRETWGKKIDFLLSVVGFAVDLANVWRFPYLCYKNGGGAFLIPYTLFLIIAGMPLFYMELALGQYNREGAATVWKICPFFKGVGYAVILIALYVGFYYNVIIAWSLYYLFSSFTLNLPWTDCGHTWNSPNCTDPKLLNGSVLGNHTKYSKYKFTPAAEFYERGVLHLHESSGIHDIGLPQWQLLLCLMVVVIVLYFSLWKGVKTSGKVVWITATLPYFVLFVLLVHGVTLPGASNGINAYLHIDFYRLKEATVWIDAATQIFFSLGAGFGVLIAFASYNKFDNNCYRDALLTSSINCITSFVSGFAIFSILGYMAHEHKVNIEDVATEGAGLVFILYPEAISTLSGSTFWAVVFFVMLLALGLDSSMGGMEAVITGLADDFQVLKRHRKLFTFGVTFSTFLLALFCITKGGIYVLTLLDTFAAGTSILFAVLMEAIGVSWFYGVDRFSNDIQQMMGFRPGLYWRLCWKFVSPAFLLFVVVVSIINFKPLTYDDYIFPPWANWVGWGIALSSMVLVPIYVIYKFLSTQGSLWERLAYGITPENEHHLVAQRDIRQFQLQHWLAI
T2 sequence (P00797 67-406): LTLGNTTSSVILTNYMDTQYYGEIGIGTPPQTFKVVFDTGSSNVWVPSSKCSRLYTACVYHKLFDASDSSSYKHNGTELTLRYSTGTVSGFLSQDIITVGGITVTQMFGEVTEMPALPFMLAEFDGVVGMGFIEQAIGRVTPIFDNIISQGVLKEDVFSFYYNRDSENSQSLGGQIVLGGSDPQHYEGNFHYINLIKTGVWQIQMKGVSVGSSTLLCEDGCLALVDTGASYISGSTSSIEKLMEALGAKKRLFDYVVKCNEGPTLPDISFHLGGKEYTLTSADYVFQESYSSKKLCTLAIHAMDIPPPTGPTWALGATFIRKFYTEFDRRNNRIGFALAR
T5 sequence (P08912 whole entry): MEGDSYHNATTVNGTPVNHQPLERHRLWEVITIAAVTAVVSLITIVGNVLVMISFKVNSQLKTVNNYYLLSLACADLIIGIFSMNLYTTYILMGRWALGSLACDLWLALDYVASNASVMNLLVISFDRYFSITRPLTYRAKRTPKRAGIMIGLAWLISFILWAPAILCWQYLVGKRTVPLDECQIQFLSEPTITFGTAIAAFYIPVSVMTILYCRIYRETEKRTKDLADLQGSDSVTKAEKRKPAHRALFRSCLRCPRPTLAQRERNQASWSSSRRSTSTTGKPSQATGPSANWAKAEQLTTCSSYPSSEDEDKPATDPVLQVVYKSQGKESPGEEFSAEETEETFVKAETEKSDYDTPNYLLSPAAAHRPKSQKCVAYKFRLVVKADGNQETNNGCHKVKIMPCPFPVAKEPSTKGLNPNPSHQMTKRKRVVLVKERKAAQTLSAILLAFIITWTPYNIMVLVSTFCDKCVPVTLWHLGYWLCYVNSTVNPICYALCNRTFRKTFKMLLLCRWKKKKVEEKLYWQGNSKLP
T14 sequence (P43140 whole entry): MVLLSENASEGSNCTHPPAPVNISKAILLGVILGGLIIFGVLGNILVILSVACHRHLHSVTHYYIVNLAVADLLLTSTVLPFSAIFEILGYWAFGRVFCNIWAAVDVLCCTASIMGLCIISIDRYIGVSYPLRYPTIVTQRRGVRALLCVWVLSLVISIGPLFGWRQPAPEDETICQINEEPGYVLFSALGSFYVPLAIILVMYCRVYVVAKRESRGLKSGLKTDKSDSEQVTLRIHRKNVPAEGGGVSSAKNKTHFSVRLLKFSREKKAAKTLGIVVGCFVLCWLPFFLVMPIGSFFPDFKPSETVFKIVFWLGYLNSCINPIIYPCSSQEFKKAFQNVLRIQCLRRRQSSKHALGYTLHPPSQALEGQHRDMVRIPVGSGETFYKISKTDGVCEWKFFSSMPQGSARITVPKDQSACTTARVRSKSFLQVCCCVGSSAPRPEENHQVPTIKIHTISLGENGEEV
T10 sequence (P06401 whole entry): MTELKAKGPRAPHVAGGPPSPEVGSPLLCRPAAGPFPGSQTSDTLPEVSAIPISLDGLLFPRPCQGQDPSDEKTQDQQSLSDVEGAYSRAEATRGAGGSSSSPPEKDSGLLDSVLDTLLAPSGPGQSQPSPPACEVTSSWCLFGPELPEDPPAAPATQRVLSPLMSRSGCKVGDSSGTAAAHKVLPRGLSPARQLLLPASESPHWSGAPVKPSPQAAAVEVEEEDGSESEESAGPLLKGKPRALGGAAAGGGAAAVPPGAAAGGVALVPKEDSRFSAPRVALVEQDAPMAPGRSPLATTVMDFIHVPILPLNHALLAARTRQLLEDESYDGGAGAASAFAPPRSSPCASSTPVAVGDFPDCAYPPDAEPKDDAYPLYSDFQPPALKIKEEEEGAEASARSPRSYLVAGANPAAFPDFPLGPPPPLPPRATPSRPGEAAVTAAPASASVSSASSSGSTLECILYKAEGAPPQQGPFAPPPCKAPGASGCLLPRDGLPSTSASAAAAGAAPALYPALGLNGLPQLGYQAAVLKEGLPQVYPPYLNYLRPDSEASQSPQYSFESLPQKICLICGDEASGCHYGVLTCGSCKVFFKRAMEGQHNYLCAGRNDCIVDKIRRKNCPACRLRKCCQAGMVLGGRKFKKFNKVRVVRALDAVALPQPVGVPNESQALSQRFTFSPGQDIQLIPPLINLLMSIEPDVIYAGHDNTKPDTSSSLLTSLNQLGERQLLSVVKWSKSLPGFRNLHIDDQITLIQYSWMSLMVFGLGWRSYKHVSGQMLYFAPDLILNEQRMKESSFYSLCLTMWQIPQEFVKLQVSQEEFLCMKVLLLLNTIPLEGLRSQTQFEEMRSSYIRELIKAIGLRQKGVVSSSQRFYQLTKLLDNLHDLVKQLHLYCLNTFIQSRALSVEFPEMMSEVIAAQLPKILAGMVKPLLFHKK
T4 sequence (P11511 whole entry): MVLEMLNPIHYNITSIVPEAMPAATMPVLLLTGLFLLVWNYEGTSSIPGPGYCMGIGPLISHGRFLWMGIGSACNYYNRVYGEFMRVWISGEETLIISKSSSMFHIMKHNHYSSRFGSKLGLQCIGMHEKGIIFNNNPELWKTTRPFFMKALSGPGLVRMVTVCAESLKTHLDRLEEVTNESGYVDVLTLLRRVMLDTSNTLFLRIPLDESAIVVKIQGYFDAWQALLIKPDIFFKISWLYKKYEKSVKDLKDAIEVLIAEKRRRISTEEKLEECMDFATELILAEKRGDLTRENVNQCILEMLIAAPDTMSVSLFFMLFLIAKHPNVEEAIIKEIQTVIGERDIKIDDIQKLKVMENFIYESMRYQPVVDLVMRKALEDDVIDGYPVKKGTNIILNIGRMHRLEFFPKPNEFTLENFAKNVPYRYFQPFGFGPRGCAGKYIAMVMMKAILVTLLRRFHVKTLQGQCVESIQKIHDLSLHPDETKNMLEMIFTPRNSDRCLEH

Question: With C[C@]12CC[C@H](O)C[C@H]1CCC1C2CC[C@]2(C)[C@@H](c3c[nH]cn3)CC[C@]12O (stereo partly drawn) [CVie 101, 3β-hydroxy-5β-10β-methyl-13β-methyl-14β-hydroxy-17β-(imidazol-4-yl)androstane] as the molecule, how does the inhibition at 10 µM (HMG-CoA Reductase) read?
Answer: Its inhibition at 10 µM is 7%.

Question: What about the inhibition at 10 µM (Peptidase, Renin) of the same molecule?
Answer: The inhibition at 10 µM was 3%.

Question: What about the AUC(0-inf) (Bioavailability in rats; rat, in vivo, 10 mg/kg) of the same molecule?
Answer: Its AUC(0-inf) is 2490 ng·h/mL.

Question: What about the AUC(0-t) (Bioavailability in rats; rat, in vivo, 10 mg/kg) of the same molecule?
Answer: The AUC(0-t) was 2430 ng·h/mL.

Question: What about the Cmax (Bioavailability in rats; rat, in vivo, 10 mg/kg) of the same molecule?
Answer: The Cmax was 1020 ng/mL.

Question: What about the MRT last (Bioavailability in rats; rat, in vivo, 10 mg/kg) of the same molecule?
Answer: Its MRT last is 2.03 h.

Question: What about the Tmax (Bioavailability in rats; rat, in vivo, 10 mg/kg) of the same molecule?
Answer: Its Tmax is 0.5 h.

Question: What about the half-life (Bioavailability in rats; rat, in vivo, 10 mg/kg) of the same molecule?
Answer: Its half-life is 2.21 h.

Question: What about the bioavailability (Bioavailability in rats; rat, in vivo, po, 10 mg/kg) of the same molecule?
Answer: Its bioavailability is 66.3%.

Question: And the Cl_F_pred (Bioavailability in rats; [8])?
Answer: Its Cl_F_pred is 81.3 mL/min/kg.

Question: What about the Vz_F_pred (Bioavailability in rats; [8]) of the same molecule?
Answer: The Vz_F_pred was 14.29 L/kg.

Question: And the inhibition at 10 µM [1]?
Answer: Its inhibition at 10 µM is 2%.

Question: What about the inhibition at 10 µM [2] of the same molecule?
Answer: The inhibition at 10 µM was 36%.

Question: And the “% inhib” value (Phorbol Ester)?
Answer: The value was −4%.

Question: And the inhibition at 10 µM (Muscarinic M5)?
Answer: Its inhibition at 10 µM is 21%.

Question: What about the inhibition at 10 µM (Histamine H1) of the same molecule?
Answer: Its inhibition at 10 µM is 13%.

Question: And the inhibition at 10 µM (Opiate μ(OP3, MOP))?
Answer: Its inhibition at 10 µM is 19%.

Question: And the inhibition at 10 µM (Adrenergic α2A)?
Answer: Its inhibition at 10 µM is -7%.

Question: What about the inhibition at 10 µM (Adrenergic β1) of the same molecule?
Answer: Its inhibition at 10 µM is -4%.

Question: And the “short term APD variability (STV)” value ([3]; 0.5-1-2-4 Hz separately or pooled, FIG. 3)?
Answer: Its value is “unaffected”.

Question: What about the “diastolic membrane potential (Ediast)” value ([3]; 0.5-1-2-4 Hz, FIG. 2A) of the same molecule?
Answer: The value was “did not affect”.

Question: And the “maximum depolarization velocity (dV/dtmax)” value ([3]; FIG. 2B)?
Answer: The value was “did not affect”.

Question: And the “action potential duration (APD at 90%, 50% and 20% of repolarization) and its cycle-length dependency” value ([3]; FIG. 2C)?
Answer: The value was “did not affect”.

Question: What about the “time constant of APD adaptation after a step change in cycle length” value ([3]; FIG. 2D) of the same molecule?
Answer: The value was “not shortened”.

Question: And the inhibition at 10 µM (Progesterone PR-B)?
Answer: Its inhibition at 10 µM is 10%.

Question: What about the “% inhib” value (Androgen (Testosterone)) of the same molecule?
Answer: Its value is 1%.

Question: And the inhibition at 10 µM (Adrenergic α1B)?
Answer: The inhibition at 10 µM was 0%.

Question: And the inhibition at 10 µM (Angiotensin AT1)?
Answer: Its inhibition at 10 µM is 12%.

Question: And the “% inhib” value [4]?
Answer: Its value is −8%.

Question: What about the “% inhib” value [5] of the same molecule?
Answer: The value was 7%.

Question: And the inhibition at 10 µM (Angiotensin AT2)?
Answer: The inhibition at 10 µM was -1%.

Question: And the inhibition at 10 µM (Adrenergic α1A)?
Answer: The inhibition at 10 µM was 1%.

Question: And the LD50 at 24 h ([6]; iv)?
Answer: Its LD50 at 24 h is 20 mg/kg.

Question: And the LD50 at 24 h ([6]; oral, os)?
Answer: The LD50 at 24 h was 350 mg/kg.

Question: What about the inhibition at 10 µM (Potassium Channel (KATP)) of the same molecule?
Answer: The inhibition at 10 µM was -6%.

Question: What about the “% inhib” value [7] of the same molecule?
Answer: The value was 14%.
